Reference: US5817651A, “3-arylcarbonyl-1-(C-attached-N-heteryl)-1H-indoles” (Sanofi, priority 1997, dated 1998)
Where a name gives a salt, the structure may show the parent alone. Read-outs that look alike come from different tables or passages of the source.

Legend:
Format in all cases: in vivo
[1] = tested on: acetylcholine-induced abdominal constriction; assay: acetylcholine-induced abdominal constriction test (ACH); settings: mice; for ED50: Mus musculus
Excerpt: J. Pharmacol. Chemotherap. 32, 295 (1968); a modification of the anti-bradykinin test, which is also a primary analgesic screening procedure, described by Berkowitz et al., J. Pharmacol. Exptl. Therap. 177, 500-508 (1971), Blane et al., J. Pharm. Pharmacol. 19, 367-373 (1967), Botha et al., Eur. J. Pharmacol. 6, 312-321 (1969) and Deffenu et al., J. Pharm. Pharmacol. 18, 135 (1966); and the Randall-Selitto analgesic test described by Randall and Selitto, Arch. Int. Pharmacodyn., 111, 409-419 (1957).
Data in the developing adjuvant arthritis (AA) and plasma fibronectin (FN) assays are expressed as percent inhibition, i.e. inhibition of non-injected paw inflammation (NIP) and injected paw (RPV) and lowering of plasma fibronectin, the asterisks * and ** indicating statistical significance at the p<0.01 and p<0.05 levels, respectively. […] Non-statistically significant results are recorded as "------ ". In the acetylcholine-induced abdominal constriction test, the test compounds were administered either as suspensions in gum tragacanth (GT) or as aqueous solutions prepared by addition of just sufficient dilute aqueous methanesulfonic acid (MS) or dilute aqueous lactic acid (LA) to dissolve the compound. The compounds are identified by the example number above where their preparations are described. All data in the anti-bradykinin, rat writhing and Randall-Selitto tests were obtained on oral administration.

[2] = tested on: acetic acid-induced writhing; assay: acetic acid-induced writhing assay in the rat (RW); settings: for ED50: Rattus norvegicus, po; for RW percent inhibition at dose 30: dose level 30
Experimental: (§1) Data in the developing adjuvant arthritis (AA) and plasma fibronectin (FN) assays are expressed as percent inhibition, i.e. inhibition of non-injected paw inflammation (NIP) and injected paw (RPV) and lowering of plasma fibronectin, the asterisks * and ** indicating statistical significance at the p<0.01 and p<0.05 levels, respectively. Compounds are considered active at p<0.05 level. Non-statistically significant results are recorded as "------ ". In the acetylcholine-induced abdominal constriction test, the test compounds were administered either as suspensions in gum tragacanth (GT) or as aqueous solutions prepared by addition of just sufficient dilute aqueous methanesulfonic acid (MS) or dilute aqueous lactic acid (LA) to dissolve the compound. The compounds are identified by the example number above where their preparations are described. All data in the anti-bradykinin, rat writhing and Randall-Selitto tests were obtained on oral administration.

[3] = tested on: adjuvant induced arthritis; assay: developing adjuvant arthritis (AA) assay; settings: arthritic rats; printed * = p<0.01, ** = p<0.05
Experimental: Antirheumatic and anti-inflammatory activities of the compounds of the invention were determined using the developing adjuvant arthritis assay in rats and the plasma fibronectin assay in arthritic rats. The developing adjuvant arthritis assay was used in conjunction with the plasma fibronectin assay as a primary screening method in the evaluation of compounds for potential use as disease modifying anti-rheumatic drugs. The procedure used to induce arthritis in rats is a modification of the methods published by Pearson, J. Chron. Dis. 16, 863-874 (1973) and by Glenn et al., Amer. J. Vet. Res. 1180-1193 (1965). Adjuvant induced arthritis bears many of the traits of rheumatoid arthritis. It is a chronic, progressive, deforming arthritis of the peripheral joints, with a primary mononuclear cell response consisting of bone and joint space invasion by pannus. In order to detect disease modifying anti-rheumatic drug activity, drug treatment is started before the disease has become irrevocably established. Since such drugs are not designed to be administered prophylactically, drug treatment of adjuvant arthritis is initiated at a time when the disease is developing but is not yet irreversible. Animals develop significant systemic arthritic disease which can be measured by swelling of the non-injected rear paw (NIP) 15 to 20 days following an initial injection on day 1 of complete Freund's adjuvant into the right hindfoot paw.
as §1

[4] = Table 9, Examples, no route marked in the cell, read-out: ACH ED50
[5] = iv, Table 9, iv, read-out: ACH ED50 (iv)
[6] = Table 9, Examples, no route marked in the cell

COc1ccc(C(=O)c2c(C)n(C3CCCN(C)C3)c3ccccc23)cc1 (centres unmarked) [2AG(a)]
ACH ED50 ([1]; Table 9, Examples, no route marked in the cell, listed as 2AG(d)): 22 mg/kg
ED50 ([2]; oral administration): 9 mg/kg

COc1ccc(C(=O)c2c(C)n(CC3CN(C)CCO3)c3ccccc23)cc1 (centres unmarked) [Example 1A, 1-[(4-methyl-2-morpholinyl)methyl]-2-methyl-3-(4-methoxybenzoyl)-1H-indolehydrochloride]
ED50 [1, 4]: 9 mg/kg
ED50 ([2]; oral administration): 3 mg/kg

Cc1c(C(=O)c2ccccc2)c2ccccc2n1CC1CN(C)CCO1 (centres unmarked) [Example 1C]
ED50 [1, 4]: 21 mg/kg
ED50 ([2]; oral administration): 10 mg/kg

Cc1c(C(=O)c2ccccc2F)c2ccccc2n1CC1CN(C)CCO1 (centres unmarked) [Example 1F]
ED50 [1, 4]: 22 mg/kg
ED50 ([2]; oral administration): 26 mg/kg

COc1ccc(C(=O)c2cn(CC3CCCN(C)C3)c3ccccc23)cc1 (centres unmarked) [Example 1I]
ED50 [1, 5]: 5 mg/kg
ACH ED50 (MS) ([1]; Table 9, aqueous solution with dilute methanesulfonic acid (MS)): 38 mg/kg
NIP: percent inhibition of non-injected paw inflammation [3]: 61%
RPV: percent inhibition of injected paw [3]: 19%
ED50 ([2]; oral administration): 32 mg/kg

Cc1c(C(=O)c2ccccc2F)c2ccccc2n1CC1CCCN(C)C1 (centres unmarked) [Example 1J]
ED50 [1, 4]: 32 mg/kg
ED50 ([2]; oral administration): 45 mg/kg

Cc1c(C(=O)c2ccccc2)c2ccccc2n1CC1CCCN(C)C1 (centres unmarked) [Example 1K]
ED50 [1, 4]: 33 mg/kg
NIP: percent inhibition of non-injected paw inflammation [3]: 76%
RPV: percent inhibition of injected paw [3]: 50%
ED50 ([2]; oral administration): 40 mg/kg

CCN1CCCC(n2c(C)c(C(=O)c3ccc(OC)cc3)c3ccccc32)C1 (centres unmarked) [Example 2AE]
ED50 [1, 4]: 26 mg/kg
RW percent inhibition at dose 30 ([2]; oral): 15%

COc1ccc(C(=O)c2c(C)n(CC3=CCCN(C)C3)c3ccccc23)cc1 [Example 2AF]
ED50 [1, 4]: 11 mg/kg
NIP: percent inhibition of non-injected paw inflammation [3]: 93%
RPV: percent inhibition of injected paw [3]: 78%
ED50 ([2]; oral administration): 15 mg/kg

COc1ccc(C(=O)c2c(C)n(CC3CCN(C)C3)c3ccccc23)cc1 (centres unmarked) [Example 2AI]
ED50 [1, 4]: 11 mg/kg
ACH ED50 [1, 6]: 13 mg/kg
ED50 ([2]; oral administration): 4 mg/kg

Cc1c(C(=O)c2ccccc2F)c2ccccc2n1CC1CCCN1C (centres unmarked) [Example 2AJ]
ED50 [1, 4]: 72 mg/kg
NIP: percent inhibition of non-injected paw inflammation [3]: 31%
ED50 ([2]; oral administration): 6 mg/kg

COc1ccc(C(=O)c2c(C)n(CCC3CCCCN3C)c3ccccc23)cc1 (centres unmarked) [Example 2G]
ED50 [1, 4]: 26 mg/kg
NIP: percent inhibition of non-injected paw inflammation [3]: 93%
RPV: percent inhibition of injected paw [3]: 73%
ED50 ([2]; oral administration): 3 mg/kg

COc1ccc(C(=O)c2c(C)n(CC3CCCN(C)C3)c3ccc(F)cc23)cc1 (centres unmarked) [Example 2I]
ED50 [1, 4]: 40 mg/kg
NIP: percent inhibition of non-injected paw inflammation [3]: 70%
RPV: percent inhibition of injected paw [3]: 51%
ED50 ([2]; oral administration): 5 mg/kg

CCc1c(C(=O)c2ccc(OC)cc2)c2ccccc2n1CC1CCCN(C)C1 (centres unmarked) [Example 2K]
ED50 [1, 4]: 16 mg/kg
ED50 [1, 5]: 11 mg/kg
ED50 ([1]; sc, Table 9, sc, read-out: ACH ED50 (sc)): 10 mg/kg
NIP: percent inhibition of non-injected paw inflammation [3]: 68%
RPV: percent inhibition of injected paw [3]: 54%
ED50 ([2]; oral administration): 23 mg/kg

CCN1CCCC(Cn2c(C)c(C(=O)c3ccc(OC)cc3)c3ccccc32)C1 (centres unmarked) [Example 2L]
ED50 [1, 4]: 11 mg/kg
ED50 ([2]; oral administration): 2 mg/kg

CSc1ccc(C(=O)c2c(C)n(CC3CCCN(C)C3)c3ccccc23)cc1 (centres unmarked) [Example 2O]
ED50 [1, 4]: 8 mg/kg
NIP: percent inhibition of non-injected paw inflammation [3]: 65%
RPV: percent inhibition of injected paw [3]: 44%
ED50 ([2]; oral administration): 5 mg/kg

COc1ccc(C(=O)c2c(C)n(CC3CN(C)CCN3C)c3ccccc23)cc1 (centres unmarked) [Example 2V]
ED50 [1, 4]: 20 mg/kg
ED50 ([2]; oral administration): 15 mg/kg

COc1ccc(C(=O)c2c(C)n(C3CCCCN(C)C3)c3ccccc23)cc1 (centres unmarked) [Example 2X]
ED50 [1, 4]: 29 mg/kg
NIP: percent inhibition of non-injected paw inflammation [3]: 43%
RW percent inhibition at dose 30 ([2]; oral): 54%
RW percent inhibition at dose 100 ([2]; oral, dose level 100): 82%

COc1ccc(C(=O)c2c(C)n(CC3CSCCN3C)c3ccccc23)cc1 (centres unmarked) [Example 3A, 1-[(4-methyl-3-thiomorpholinyl)methyl]-2-methyl-3-(4-methoxybenzoyl)-1H-indole]
ED50 [1, 4]: 33 mg/kg
ED50 ([2]; oral administration): 13 mg/kg

COc1ccc(C(=O)c2c(C)n(CC3CCCNC3)c3ccccc23)cc1 (centres unmarked) [Example 4B]
ED50 [1, 4]: 15 mg/kg
NIP: percent inhibition of non-injected paw inflammation [3]: 91%
RPV: percent inhibition of injected paw [3]: 79%
ED50 ([2]; oral administration): 10 mg/kg

COc1ccc(C(=O)c2c(C)n(CC3CNCCN3)c3ccccc23)cc1 (centres unmarked) [Example 4C]
ED50 [1, 4]: 22 mg/kg
ED50 ([2]; oral administration): 20 mg/kg

CC(C1CCCN(C)C1)n1cc(C(=O)c2ccccc2F)c2ccccc21 (centres unmarked) [Example 4F]
ED50 [1, 4]: 24 mg/kg
NIP: percent inhibition of non-injected paw inflammation [3]: 45%
RPV: percent inhibition of injected paw [3]: 27%
ED50 ([2]; oral administration): 6 mg/kg

CC(C1CCCN(C)C1)n1cc(C(=O)c2ccccc2F)c2ccccc21 (centres unmarked) [Example 4G]
ACH ED50 [1, 6]: 19 mg/kg
RW ED50 ([2]; oral administration): 7 mg/kg

CC(C1CCCNC1)n1cc(C(=O)c2ccccc2F)c2ccccc21 (centres unmarked) [Example 4H]
ACH ED50 [1, 6]: 25 mg/kg
ED50 ([2]; oral administration): 4 mg/kg

COc1ccc(C(=O)c2c(C)n(CC3(O)CCN(C)CC3)c3ccccc23)cc1 [Example 5, 2-methyl-3-(4-methoxybenzoyl)-1-[(1-methyl-4-hydroxy-4-piperidinyl)methyl]-1H-indole]
ED50 [1, 4]: 23 mg/kg
ED50 ([2]; oral administration): 9.1 mg/kg

Cc1c(C(=O)c2ccc([S+](C)[O-])cc2)c2ccccc2n1CC1CCCN(C)C1.Cl (centres unmarked) [Example 6A, 1-[(1-methyl-3-piperidinyl)methyl]-2-methyl-3-(4-methylsulfinylbenzoyl)-1H-indole hydrochloride]
ED50 [1, 4]: 9 mg/kg
NIP: percent inhibition of non-injected paw inflammation [3]: 93%
RPV: percent inhibition of injected paw [3]: 81%
ED50 ([2]; oral administration): 5 mg/kg

COc1ccc(C(=O)c2c(C)n(CC3CCCN3)c3ccccc23)cc1.Cl (centres unmarked) [Example 8A, 2-methyl-3-(4-methoxybenzoyl)-1-[(2-pyrrolidinyl)methyl]-1H-indole hydrochloride]
ED50 [1, 4]: 41 mg/kg
ED50 ([2]; oral administration): 25 mg/kg

Cc1c(C(=O)c2ccc(N)cc2)c2ccccc2n1CC1CCCN(C)C1 (centres unmarked) [Example 9, 2-methyl-3-(4-aminobenzoyl)-1-[(1-methyl-3-piperidinyl)methyl]-1H-indole hydrochloride hemihydrate]
ED50 [1, 4]: 12 mg/kg
ED50 ([2]; oral administration): 9 mg/kg
